# Test system: phenyl-para-quinone induced writhes
# Assay: phenyl-para-quinone writhing assay in mice (analgetic activity)
# Type: in vivo
# Conditions: subcutaneous (sc); for Analgetic Activity, percent inhibition of writhing: screening dose of 20 mg/kg
# Experimental: Exptl. Biol. Med., 95, 729 ([…])]. Presented in the Table is the analgetic activity of representative compounds of the invention and a standard, expressed as the estimated subcutaneous dose at which the mice experience a 50% reduction in phenyl-para-quinone induced writhes, i.e., the ED50 -value, or the percent inhibition of writhing caused by a screening dose of 20 mg/kg of body weight administered subcutaneously (sc).
Structure (SMILES),"Analgetic Activity, percent inhibition of writhing [%]","Analgetic Activity, ED50 (estimated subcutaneous dose at which the mice experience a 50% reduction in phenyl-para-quinone induced writhes) [mg/kg]"
"O=c1n(CCc2ccccc2)nc2n1-c1ccccc1N1CCc3cccc-2c31 [1,2-Dihydro-7-(2-phenylethyl)benzo[b]pyrrolo[3,2,1-jk][1,2,4]triazolo[4,3-d][1,4]benzodiazepin-8(7H)-one]",62,–
"O=c1n(CCCc2noc3cc(F)ccc23)nc2n1-c1cc(Br)ccc1N1CCc3cccc-2c31 [11-Bromo-1,2-dihydro-7-[3-(6-fluoro-1,2-benzisoxazol-3-yl)-1-propyl]benzo[b]pyrrolo[3,2,1-jk][1,2,4]triazolo[4,3-d][1,4]benzodiazepin-8(7H)-one]",54,–
"CN(C)Cc1nnc2n1-c1cc(Br)ccc1N1CCc3cccc-2c31 [11-Bromo-1,2-dihydro-8-(dimethylamino)methylbenzo[b]pyrrolo[3,2,1-jk][1,2,4]triazolo[4,3-d][1,4]benzodiazepine]",–,3.55
"Brc1ccc2c(c1)-n1nnnc1-c1cccc3c1N2CC3 [11-Bromo-1,2-dihydrobenzo[b]pyrrolo[3,2,1-jk]tetrazolo[1,5-d][1,4]benzodiazepine]",56,–
"Cc1ccc2c(c1)n1c(CN(C)C)nnc1c1cccc3ccn2c31 [11-Methyl-8-(dimethylamino)methylbenzo[b]pyrrolo[3,2,1-jk][1,2,4]triazolo[4,3-d][1,4]benzodiazepine]",57,–
"CCC(=O)O[C@](Cc1ccccc1)(c1ccccc1)[C@H](C)CN(C)C [propoxyphene, reference compound]",–,3.9

# — patent US4983601A, “Benzo(b)pyrrolobenzodiazepines” (Hoechst-Roussel Pharmaceutical Inc., priority 1989, dated 1991)
